Measurements as given in PubChem BioAssay (NCI).
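All cell lines were grown in 96-well plates and treated with compound for 48 hours. TGI marks complete inhibition of growth.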

Assays:
Test in all cases: NCI tumour cell line growth inhibition, 48 h
[1] = test system: A498 renal
[2] = test system: KM12 colon
[3] = test system: MDA-MB-231 breast
[4] = test system: MDA-MB-435
[5] = test system: MDA-N
[6] = test system: NCI-H522 lung
[7] = test system: RPMI-8226 leukemia
[8] = test system: SF-539 CNS
[9] = test system: SNB-75 CNS
[10] = test system: SR leukemia

| SMILES | TGI [1] [µM] | TGI [2] [µM] | TGI [3] [µM] | TGI [4] [µM] | TGI [5] [µM] | TGI [6] [µM] | TGI [7] [µM] | TGI [8] [µM] | TGI [9] [µM] | TGI [10] [µM] |
| --- | --- | --- | --- | --- | --- | --- | --- | --- | --- | --- |
| CCOc1ccccc1N=NC1C(=O)N(C(=O)CC(=O)Nc2ccccc2C)N=C1C (stereo not drawn) | > 100 | > 100 | > 100 | > 100 | > 100 | > 100 | > 100 | > 100 | 54.6 | > 100 |
| COC1C(O)C(C)OC(O[C@H]2CC[C@@]3(C)C(CC[C@@H]4[C@@H]3CC[C@]3(C)[C@@H](C(C)OC5OC(CO)C(O)C(O)C5O)CC[C@]43O)C2)C1O (stereo partly drawn) | > 25 | > 25 | > 25 | > 25 | > 25 | > 25 | > 25 | > 25 | > 25 | > 25 |
| COC(=O)NC(Cc1ccccc1)NC(=O)OC(C)(C)C (stereo not drawn) | > 100 | > 100 | > 100 | > 100 | > 100 | > 100 | > 100 | > 100 | > 100 | > 100 |
| N=c1ncn(C/C=C/c2ccccc2)c2nc[nH]c12 | > 100 | > 100 | > 100 | > 100 | > 100 | > 100 | > 100 | > 100 | > 100 | > 100 |
| CCCCCCCCCCCC(=O)N(CCCCCCCCC)CC(O)C(O)C(OC1OC(CO)C(O)C(O)C1O)C(O)CO (stereo not drawn) | 39.5 | 31.2 | 43.2 | 32 | 38.4 | 44.1 | 57.1 | 50.8 | 34.3 | 42.4 |
| COCC(C#N)NC1CC(OC2CC(O)(C(=O)CO)Cc3c(O)c4c(c(O)c32)C(=O)c2c(OC)cccc2C4=O)OC(C)C1O (stereo not drawn) | 0.448 | 0.77 | 0.729 | 0.346 | 0.349 | 0.193 | 1.15 | 0.365 | 0.373 | 0.15 |
| NS(=O)(=O)c1ccc(-c2ccc([As](=O)(O)O)cc2)cc1 | – | > 100 | > 100 | > 100 | > 100 | > 100 | > 100 | > 100 | > 100 | > 100 |
| N#CCCN(CCCCN(CCC#N)C(=O)Nc1ccccc1)C(=O)Nc1ccccc1 | > 100 | > 100 | > 100 | > 100 | > 100 | > 100 | > 100 | – | > 100 | > 100 |
| Clc1nc2nc(N3CCNCC3)nc(N3CCCC3)c2[nH]1 | – | 35.9 | 31.8 | 34.5 | 32.1 | 33.7 | 48 | 33.8 | 36 | 38.7 |
| CCCN=C1NC(C)=CSC(Nc2ccccc2)=C1C#N | > 100 | > 100 | > 100 | > 100 | > 100 | > 100 | > 100 | > 100 | – | > 100 |
| COC(=O)N[C@@H]1C[C@H]2CC[C@]1(O[Si](C(C)C)(C(C)C)C(C)C)C(=O)C2 | 44.3 | 52.1 | 76.5 | 41.6 | 83.4 | 24 | 69.8 | – | 41.9 | > 100 |
| O=C1CCCC1CC(CN1CCOCC1)Sc1nnnn1-c1ccccc1 (stereo not drawn) | > 100 | > 100 | > 100 | > 100 | > 100 | > 100 | > 100 | > 100 | 96.7 | > 100 |
| Cc1cnc2c(c1)C(=O)N(c1ccc(Oc3ccccc3)cc1)S2(=O)=O | – | > 100 | > 100 | > 100 | > 100 | > 100 | > 100 | > 100 | > 100 | > 100 |
| N#Cc1sc2c(c1OC(=O)c1ccco1)c(=O)n(-c1ccccc1)c(=S)n2-c1ccccc1 | – | > 100 | 73.8 | 84.4 | 47.1 | 64.4 | 59.3 | 52.7 | 84.5 | > 10 |
| CCC[N+](C)(C)CCCNC(=O)c1c(O)c2ccccc2[nH]c1=O | > 100 | > 100 | > 100 | > 100 | > 100 | > 100 | > 100 | > 100 | > 100 | > 100 |
| COC(=O)C1=C(C)NC(C)=C(C(=O)OC)C1c1cccc(/[N+]([O-])=C/c2ccccc2)c1 | – | > 100 | 32 | 35.7 | 31.6 | 30.2 | > 100 | > 100 | > 100 | 62 |
| COc1ccc(/C(=N/O)c2ccccc2C2=Nc3ccccc3C(NCc3ccccc3)O2)cc1C (stereo not drawn) | – | > 100 | > 100 | 90.4 | > 100 | > 100 | > 100 | > 100 | 75.4 | > 100 |

| SMILES | TGI [1] [µM] | TGI [2] [µM] | TGI [3] [µM] | TGI [4] [µM] | TGI [5] [µM] | TGI [6] [µM] | TGI [7] [µM] | TGI [8] [µM] | TGI [9] [µM] | TGI [10] [µM] |
| --- | --- | --- | --- | --- | --- | --- | --- | --- | --- | --- |
| O=C(CCCCCNC(=O)c1ccc(Cl)cc1)NO | – | > 100 | 21 | 31.3 | 10.8 | 15.2 | > 100 | > 100 | 30.8 | 53.7 |
| N#Cc1c(/C=C/c2ccccc2)c2c([nH]c1=S)CCCCC2 | > 100 | > 100 | > 100 | > 100 | > 100 | > 100 | > 100 | > 100 | > 100 | > 100 |
| O=C1C(c2ccccc2)=C(c2ccccc2)C1(Cl)Cl | 17.2 | 19.2 | 7.84 | 6.7 | 4.51 | 4.51 | 5.53 | 9.22 | 16.6 | 4.82 |
| CCOC(=O)c1nc2ccccc2nc1Nc1ccc(C(=O)OC)s1 | > 100 | > 100 | > 100 | > 100 | > 100 | > 100 | > 100 | > 100 | > 100 | > 100 |
| CC1(C)C2CC3C(C)(C2)C31c1cc(Cl)ccc1N (stereo not drawn) | 31.8 | 28.5 | 30 | 25.1 | 24.7 | 19.7 | 30 | 32 | 24.3 | 22 |
| [N-]=[N+]=Nc1cc(=O)[nH]c2ccccc12 | – | > 100 | > 100 | > 100 | > 100 | > 100 | > 100 | > 100 | > 100 | > 100 |
| Cc1cc(N(CCC#N)CCC#N)ccc1/C(N=Nc1ccc(C(=O)O)cc1)=N\NC(=O)c1ccccc1 | 84.4 | > 100 | > 100 | > 100 | > 100 | 38.5 | > 100 | 57 | > 100 | > 100 |
| CCCCCc1cc2cc3c(c(O)c2c(=O)[nH]1)C1(CCC3)C(=O)c2c(O)ccc(O)c2C1=O | > 100 | > 100 | > 100 | > 100 | > 100 | > 100 | > 100 | > 100 | > 100 | > 100 |
| NC(=Nc1ccccc1)N/N=C/c1c[nH]c2ccccc12 | 2.12 | 5.28 | 6.83 | 0.0649 | 0.0405 | 0.306 | 46 | 1.92 | 5.56 | > 50.1 |
| Cc1cc2nc3c(C#N)c(C)c(CCCl)c(Cl)n3c2cc1C | 7.64 | 14.4 | 3.66 | 4.92 | 6.12 | > 100 | 5.49 | 5.09 | 4.63 | 5.81 |
| CCOP(=O)(OCC)/C(=C/n1c(=S)[nH]c2ccccc21)C(=O)OC | > 100 | > 100 | > 100 | > 100 | > 100 | > 100 | > 100 | > 100 | > 100 | > 100 |
| CC1(C)CC(=O)c2c(N)n[nH]c2C1 | > 100 | > 100 | > 100 | > 100 | > 100 | > 100 | > 100 | > 100 | > 100 | > 100 |
| c1ccc2c(c1)nnn2C1CCCCO1 (stereo not drawn) | > 100 | > 100 | > 100 | > 100 | > 100 | > 100 | > 100 | > 100 | > 100 | > 100 |
| Oc1ccc(-c2nc3cc(C(F)(F)F)ccc3s2)cc1 | 32.6 | 27.8 | 31 | 29.5 | 32.7 | 25.7 | 35.4 | 34.2 | – | 35.2 |
| O=C(CC(=O)N1N=C(c2ccccc2)C(N=Nc2ccc(S(=O)(=O)CCOS(=O)(=O)O)cc2)C1=O)Nc1ccc(Cl)cc1 (stereo not drawn) | > 100 | > 100 | > 100 | > 100 | > 100 | > 100 | > 100 | > 100 | > 100 | > 100 |
| CC1(C)CCCCCC(O)C(O)CCC(C)(C)C1=O (stereo not drawn) | > 100 | > 100 | > 100 | > 100 | > 100 | > 100 | > 100 | > 100 | > 100 | > 100 |
| N=C1C=CC(=C(c2ccc(N)cc2)c2ccc(N)cc2)C=C1 | 17.3 | 13.7 | 32.5 | 19.7 | 30.3 | 12.8 | 18.4 | 13.1 | 11.5 | > 64.9 |
